According to patent US20250228858A1, “ANTI-CANCER COMBINATION THERAPY” (Boehringer Ingelheim International GmbH, priority 2023, published 2025):

Tests used:
[1] = test system: HER2-overexpressing human NSCLC cell line Calu-3; test: Calu-3 subcutaneous xenograft, zongertinib with trastuzumab and/or pertuzumab; format: in vivo, CB-17/Icr-Prkdc^scid mice; details: day 42, zongertinib 20 mg/kg qdx42 p.o., trastuzumab 20 mg/kg q7dx6 i.p., pertuzumab 20 mg/kg q7dx6 i.p., alone or combined
Protocol: The study is performed in human NSCLC cell line Calu-3 grown as subcutaneous xenografts in CB-17/Icr-Prkdc^scid mice. Day 1 was the first day, day 42 the last day of treatment and final day of analysis.
Calu-3 is a HER2-overexpressing human NSCLC cell line that can be obtained from ATCC (lot 614492062). Cells are cultured in T75, T175 and 5-Layer tissue culture flasks at 37° C. and 5% CO2. The medium used is EMEM (Lonza BE12-662F) supplemented with 10% FCS (Cytiva HyClone Characterized FBS, SH30084.03n), 2 mM Glutamax (Gibco 35050-038), 0.5 mM sodium pyruvate (Sigma S8636). Cultures are split once weekly with a ratio of 1:1.5-1:2.
To establish subcutaneous tumors, Calu-3 cells are harvested by centrifugation, washed and resuspended in PBS+5% FCS at 7×10^7 cells/ml. 50 μl cell suspension containing 3.5×10^6 cells is injected subcutaneously into the right flank of mice (1 site per mouse).
(§1) Mice in the control group are treated with vehicle, i.e.: • (i) 0.5% Natrosol, administered once daily for the duration of the treatment intragastrally by gavage needle with a volume of 10 ml/kg body weight; and • (ii) saline (0.9%), administered once every week intraperitoneally with a volume of 10 ml/kg.
Tumor volumes and side effects are monitored as described in Example 1 (see paragraph 1.1.6).
(§2) The statistical evaluation of the tumor volume and the body weight is conducted on day 21 (last day of the study). Apart from this, statistical analysis was performed as described in Example 1 (see paragraph 1.1.7), with no evaluation of tumor growth after stop of treatment.

[2] = test system: HER2-overexpressing human gastric cancer cell line NCI-N87; test: NCI-N87 subcutaneous xenograft, zongertinib with T-DXd; format: in vivo, NMRI-Foxn1^nu mice; details: for Regressions >30% / TGI: day 22; for Regressions >30%: tumors regressed/total
Protocol: The study is performed in human gastric cancer cell line NCI-N87 grown as subcutaneous xenografts in NMRI-Foxn1^nu mice. Day 1 was the first day, day 21 the last day of treatment and day 22 the final day of analysis. […]
NCI-N87 is a HER2-overexpressing human gastric cancer cell line that can be obtained from the American Type Culture Collection (ATCC #CRL-5822). Cells are cultured in T175 tissue culture flasks at 37° C. and 5% CO2. The medium used is RPMI 1640 (ATCC #30-2001) supplemented with 10% fetal calf serum (FCS) (Thermo Scientific #SH 30084.03). Cultures are split twice weekly with a ratio of 1:2.
Mice are 6- to 10-week-old female NMRI-Foxn1^nu purchased from Taconic, Denmark. After arrival at the animal facility, mice are allowed to adjust to conditions at least for 5 days before they are used for the experiment. They are housed in Macrolon® type III cages in groups of 8 to 10 under pathogen-free, controlled and standardized conditions at 21.5±1.5° C. temperature, 55±10% humidity and 12-h light-dark cycle. Standardized diet (PROVIMI KLIBA) and autoclaved tap water are provided ad libitum. Subcutaneous microchips implanted under isoflurane anaesthesia are used to identify each mouse. Cage cards showing the study number, the animal identification number, the compound, the dose level, the administration route as well as the schedule remain with the animals throughout the study.
To establish subcutaneous tumors, NCI-N87 cells are harvested by centrifugation, washed and resuspended in PBS+5% FCS at 2.5×10^7 cells/ml. 100 μl cell suspension containing 2.5×10^6 cells is injected subcutaneously into the right flank of the mice (1 site per mouse).
The suspension is used for a maximum of 7 days.
T-DM1 (Kadcyla) can be purchased from Roche.
as §1, with “once every three weeks intravenously into the tail vein with a” for “once every week intraperitoneally with a”, “volume of 5 ml/kg.” for “volume of 10 ml/kg.”
Tumor volumes are measured three times a week with a caliper. The volume of each tumor [in mm^3] is calculated according to the formula: […]
To monitor side effects of treatment, mice are inspected daily for abnormalities and body weight is determined three times a week. […] In addition, animals with tumor sizes exceeding 1500 mm^3 in diameter, with ulcerating tumors or 18% body weight loss are euthanized for ethical reasons.
For a quick overview of possible treatment effects, the median of the tumor volume of each treatment group T is referred to the median of the control C as tumor growth inhibition (TGI) defined as: […]

[3] = test system: HER2-overexpressing human breast cancer cell line HCC1954; format: in vivo; details: zongertinib 20 mg/kg qdx21 p.o., T-DXd 1 mg/kg q21dx1 i.v., pertuzumab 20 mg/kg q7dx3 i.p., alone or combined
Protocol: Day 1 was the first day, day 21 the last day of treatment and final day of analysis.
Cells are cultured in T75, T175 and 5-Layer tissue culture flasks at 37° C. and 5% CO2.
as §2

[4] = test system: HER2-overexpressing human NSCLC cell line NCI-H2170; test: NCI-H2170 subcutaneous xenograft, zongertinib with T-DXd; format: in vivo, NMRI-Foxn1^nu mice; details: day 21, alone or combined; for Regressions >30%: tumors regressed/total (partial response)
Protocol: The study is performed in human NSCLC cell line NCI-H2170 grown as subcutaneous xenografts in NMRI-Foxn1^nu mice. Day 1 was the first day, day 21 the last day of treatment and final day of analysis.
NCI-H2170 is a HER2-overexpressing NSCLC cell line that can be obtained from the American Type Culture Collection (ATCC #CRL-5928; original vial lot: 4419196). Cells are cultured in T175 tissue culture flasks at 37° C. and 5% CO2. The medium used is RPMI 1640 (ATCC #30-2001) supplemented with 10% fetal bovine serum (FBS) (Gibco #26140079). Cultures are split twice weekly with a ratio of 1:3-1:9.
To establish subcutaneous tumors, NCI-H2170 cells are harvested by centrifugation, washed and resuspended in PBS+5% FCS at 1×10^7 cells/ml. 100 μl cell suspension containing 1×10^6 cells are injected subcutaneously into the right flank of the mice (1 site per mouse).
Tumor volumes and side effects are monitored as described in Example 1 (see paragraph 1.1.6), except that control animals are sacrificed when the median tumor volume of the group reaches a size of approximately 1000 mm^3.
as §2

[5] = tumors regressed/total (partial response)
[6] = zongertinib 10 mg/kg qdx21 p.o., alone or combined with T-DXd 3 mg/kg q21dx1 i.v.
[7] = zongertinib 20 mg/kg qdx21 p.o., T-DXd 3 mg/kg q21dx1 i.v., alone or combined
[8] = zongertinib 20 mg/kg qdx21 p.o., T-DXd 3 mg/kg q21dx1 i.v.

C=CC(=O)NC1CCN(c2ncc3ncnc(Nc4ccc(Oc5ccc6c(c5)ncn6C)c(C)c4)c3n2)CC1 [Zongertinib, N-{1-[8-({3-methyl-4-[(1-methyl-1H-1,3-benzodiazol-5-yl)oxy]phenyl}amino)-[1,3]diazino [5,4-d]pyrimidin-2-yl]piperidin-4-yl}prop-2-enamide]
Regressions >30% [1, 5]: 0/10
TGI [1]: 64%
Regressions >30% [2, 6]: 5/8
Regressions >30% [2, 7]: 7/8
TGI [2, 6]: 114%
TGI [2, 7]: 123%
effect on tumor growth (median tumor volumes over time) ([2]; zongertinib 10 or 20 mg/kg/day, T-DXd 3 mg/kg once, 21-day experiment): continuously shrank more than those in mice treated with T-DXd
TGI ([3]; day 21): 68%
Regressions >30% [3, 5]: 0/8
stable disease ([4]; number of tumors out of 8, zongertinib 20 mg/kg qdx21, T-DXd 3 mg/kg q21dx1): 1
Regressions >30% [4, 8]: 0/8
Regressions >30% ([4]; zongertinib 20 mg/kg qdx21 p.o., T-DXd 3 mg/kg q21dx1 i.v., listed as zongertinib): no partial responses
TGI [4, 8]: 89%
